Data as given in patent US10188743B2, “Cytisine-linked isoflavonoid antineoplastic agents for the treatment of cancer” (UNIVERSITY OF KENTUCKY RESEARCH FOUNDATION, priority 2016, dated 2019).

Tests used:
[1] = test system: p70; experiment: p70 phosphorylation, mTor pathway (Western blotting); format: cell-based; conditions: PC-3 and LS174T cells
Procedure: Biochemistry. Western blotting: Cells were lysed in the appropriate volume of lysis buffer (50 mM HEPES, 100 mM NaCl, 2 mM EDTA, 1% glycerol, 50 mM NaF, 1 mM Na3VO4, 1% Triton X-100, with protease inhibitors). The following antibodies were used: HSD17B4 (GeneTex, GTX103864), AMPK (Cell Signaling, 2532), pAMPK (Cell Signaling, 2535), ACC (Cell Signaling, 3676), pACC (Cell Signaling, 11818), p^70 (Cell Signaling, 2708), p-p^70 (Cell Signaling, 9914), S6 (Cell Signaling, 2217), pS6 (Cell Signaling, 4858), MCCA (GeneTex, GTX110062), tubulin (Hybridoma Bank, E7), Actin (Sigma, A1978), His-tag (BD Pharmingen, 552564).

[2] = target: T1, hydratase activity of HSD17B4 (Homo sapiens, UniProt P51659); experiment: HSD17B4 hydratase assay (crotonoyl CoA substrate); format: biochemical
T1 construct: His-tag; made in house; host or cells: E. coli BL21 (pET28)
T1 sequence (P51659 1-736): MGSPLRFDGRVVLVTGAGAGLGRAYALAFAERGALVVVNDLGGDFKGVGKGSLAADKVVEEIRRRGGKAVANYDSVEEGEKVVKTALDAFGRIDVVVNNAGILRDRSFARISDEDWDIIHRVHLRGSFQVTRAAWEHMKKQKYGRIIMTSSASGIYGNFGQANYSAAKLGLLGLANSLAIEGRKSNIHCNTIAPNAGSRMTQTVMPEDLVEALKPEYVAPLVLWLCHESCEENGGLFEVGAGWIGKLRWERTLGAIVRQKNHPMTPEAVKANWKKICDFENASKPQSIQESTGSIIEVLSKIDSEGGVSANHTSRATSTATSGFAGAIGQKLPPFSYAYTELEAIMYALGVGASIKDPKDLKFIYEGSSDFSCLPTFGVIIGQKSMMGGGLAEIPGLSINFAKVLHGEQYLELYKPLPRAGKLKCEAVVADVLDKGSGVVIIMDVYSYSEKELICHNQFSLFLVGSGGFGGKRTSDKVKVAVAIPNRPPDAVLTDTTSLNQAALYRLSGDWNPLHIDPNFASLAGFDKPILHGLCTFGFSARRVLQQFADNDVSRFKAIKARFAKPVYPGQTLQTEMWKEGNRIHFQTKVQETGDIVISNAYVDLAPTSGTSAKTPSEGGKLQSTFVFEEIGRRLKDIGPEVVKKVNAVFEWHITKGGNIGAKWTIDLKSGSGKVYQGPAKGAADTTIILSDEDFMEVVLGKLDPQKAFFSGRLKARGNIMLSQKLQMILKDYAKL
Description: We acquired further evidence along these lines through studies using the N-terminal α,β-dehydrogenase and C-terminal hydratase fragments of HSD17B4 as well as the full-length protein. We evaluated the α,β-dehydrogenase activity using DL-3-hydroxylbutyryl-CoA as a substrate and the conversion of NAD^+ to NADH as a readout. We concomitantly measured the hydratase activity using crotonoyl-CoA as a substrate and the diminished ultraviolet absorption of the α,β-unsaturated thioester chromophore as readout. The full-length protein, as expected, had both enzyme activities (FIGS. 7A and 7B). The C-terminal-truncated fragments N318 and N634 but not the N-terminal-truncation fragment C919 had α,β-dehydrogenase activity (FIG. 7A). The C-terminal fragment N634 and the N-terminal fragment C919, but not the C-terminal fragment N318, had hydratase activity (FIG. 7B), as summarized in FIG. 3A.
The enzymatic activities of HSD17B4 were analyzed using the method reported by Novikov et al. (J. Biol. Chem., 1994, 269, 27125). […] The reaction was quantified by measuring the fluorescent product NADH (excitation: 340 nm; emission 460 nm). […] The reaction was quantified by measuring the remaining substrate using absorbance at 280 nm.

[3] = test system: LS174T cells; experiment: Seahorse XF assay (OCR, ECAR); format: cell-based
Description: We further characterized the effects of cytisine-linked isoflavonoid 10c on energy metabolism using a Seahorse XF assay (FIG. 4D-F) that measured oxygen consumption rate (OCR), which was an indicator of mitochondrial respiration, and measured extracellular acidification rate (ECAR), which was largely the result of glycolysis. […] Similar results were found in DLD-1 colon cancer cells and PC-3 prostate cancer cells (FIGS. 8 and 9). These OCR findings were consistent with the prior evaluation of these cytisine-linked isoflavonoids that targeted the hydratase activity in HSD17B4, inhibited VLCFA beta-oxidation, depressed acetyl CoA generation, decreased the ratio of ATP/AMP, and triggered AMPK activation (FIG. 5).
Seahorse assay: 3×10^4 cells were seeded in XF96 Cell Culture microplate (80 μL of 3.75×10^5 cells/m:). On the next day, cells were treated with DMSO or inhibitors and analyzed using the Seahorse analyzer in Redox Metabolism Shared Resource Facility (RM SRF) at the Markey Cancer Center.

[4] = test system: LS174T colon cancer cells; experiment: Cancer cell proliferation (Vi-Cell viability and number); format: cell-based; conditions: 10 μM of compound
Procedure: (§1) Cell Culture. LS74T colon cancer cells were cultured in MEM/EBSS (Hyclone SH30024) and PC-3 prostate cancer cells were cultured in DMEM/F-12 HAM Mixture (Sigma D8437) containing 10% Fetal Bovine Serum (Atlanta Biological S11150). Cells (3.5×10^4 cells per well) were split into 12-well plates. After 24 h, 10 μM of each compound were added to each well. DMSO was used as a control. Each experiment was done in triplicate. Cell viability and number were analyzed using the Vi-Cell XR Cell Viability Analyzer (Beckman Coulter). To knock-down HSD17B4 levels, PC-3 and LS174 cell lines were infected with lenti-virus carrying pLKO.1-control shRNA and pLKO.1-HSD17B4b shRNA, respectively. Control shRNA and HSD17B4b shRNA cloned in pLKO.1 vectors with puromycin-resistance selection marker were purchased from Sigma. Lentiviral stocks were prepared as previously described (Yu, 2012).

[5] = test system: PC-3 prostate cancer cells; experiment: as above; format: cell-based; conditions: 10 μM of compound
Procedure: as §1

SMILES: O=c1c(-c2ccc(Cl)cc2)coc2cc(OCCN3C[C@@H]4C[C@@H](C3)c3cccc(=O)n3C4)ccc12 [Compound 10c, (1 S,5S)-3-(2-((3-(4-chlorophenyl)-4-oxo-4H-chromen-7-yl)oxy)ethyl)-3,4,5,6-tetrahydro-1H-1,5-methanopyrido[1,2-a][1,5]diazocin-8(2H)-one]
- phosphorylation of p70 [1]: inhibited the phosphorylation
- effect on hydratase activity [2]: significantly inhibited
- respiration rates [3]: significantly reduced the respiration rates
- levels of ATP production ([3]; OCR and ECAR assays): reduced the levels of ATP production
- proliferation of LS174T cells [4]: significantly inhibited the proliferation
- proliferation of PC-3 cells [5]: significantly inhibited the proliferation
